≈ marks a conversion by molar mass, not a printed value. Where two headings read alike, the source gives them in different places.
Assays:
[1] = test system: strains utilized in time-kill studies; assay: MIC summary across strains utilized in time-kill studies; type: cell-based, E. coli, E. cloacae, K. pneumoniae; details: across all four strains
[2] = test system: K. pneumoniae ATCC BAA-2814 expressing KPC-3, SHV-11, and TEM; details: approved QC range; ref CLSI AST Subcommittee, February 2021; cited from earlier work
[3] = in vivo, cited from earlier work
[4] = test system: K. pneumoniae ATCC BAA-1705 expressing KPC-2, SHV, and TEM; details: approved QC range; ref CLSI AST Subcommittee, February 2021; cited from earlier work
[5] = test system: K. pneumoniae UNT-023 expressing KPC, TEM-1, and SHV-11; assay: microbe, parasite or virus in culture; type: cell-based; details: Klebsiella pneumoniae
[6] = test system: K. pneumoniae UNT-023 expressing KPC, TEM-1, and SHV-11; assay: animal or person; type: in vivo; details: Klebsiella pneumoniae, in Mus musculus, 1 h
[7] = cited from earlier work
[8] = test system: strains of Enterobacterales expressing serine β-lactamases; assay: organism not typed; type: cell-based
[9] = test system: E. coli NCTC 13353 expressing CTX-M-15; details: approved QC range; ref CLSI AST Subcommittee, February 2021; cited from earlier work
[10] = test system: K. pneumoniae ATCC BAA-1705; assay: Impact of pH and human urine on MIC; type: cell-based; details: Klebsiella pneumoniae, ATCCBAA1705, read-out: Median or modal MIC
Description: (§1) Studies were conducted by IHMA, Schaumberg, IL. […] MICs were determined by broth […] methodology ([30], [31]). […] Antibacterial panels containing 100 μl of antibacterial solution were inoculated with the adjusted inocula using 95-prong inoculator sets. Test panels were read visually after incubation following CLSI guidelines for each organism. MIC values corresponded to the first well with no visible growth.

E. coli 1480076 = assay: Impact of pH and human urine on MIC; type: cell-based
Description: as §1

[11] = test system: K. pneumoniae ATCC 700603; assay: Impact of pH and human urine on MIC; type: cell-based; details: Klebsiella pneumoniae, ATCC700603, read-out: Median or modal MIC
Description: as §1

E. coli ATCC 25922 = assay: Impact of pH and human urine on MIC; type: cell-based; details: Escherichia coli, ATCC25922, read-out: Median or modal MIC
Description: as §1

K. pneumoniae 1434760 = assay: Impact of pH and human urine on MIC; type: cell-based
Description: as §1

K. pneumoniae 1266420 = assay: Impact of pH and human urine on MIC; type: cell-based; details: Klebsiella pneumoniae
Description: as §1

[12] = test system: 1,066 clinical urinary tract infection isolates resistant to both amoxicillin-clavulanic acid and levofloxacin; details: VNRX-5236 fixed at 4 μg/ml in the combination; cited from earlier work

**Q.** Which results are given for `Nc1nc(/C(=C/CC(=O)O)C(=O)N[C@@H]2C(=O)N3C(C(=O)O)=CCS[C@H]23)cs1` [CTB, ceftibuten]?
**A.** MIC range [1]: 16 to 128 µg/mL; QC range (MIC) [2]: 8 to 32 µg/mL; oral bioavailability ([3]; po): ~65%; plasma half-life [3]: ~2.4 h; renal excretion [3]: ~56%; QC range (MIC) [4]: 4 to 32 µg/mL; MIC [5]: 64 µg/mL (≈ 156 µM); ED50 [6]: > 128 mg/kg; human plasma protein binding [7]: ~60%; MIC50 [8]: 0.12 µg/mL (≈ 0.292 µM); MIC90 [8]: 1 µg/mL (≈ 2.44 µM); QC range (MIC) [9]: 16 to 64 µg/mL; MIC ([10]; Human urine, pH 6): 2 µg/mL (≈ 4.87 µM); MIC ([10]; Human urine, pH 7.2): 2 µg/mL (≈ 4.87 µM); MIC ([10]; MHII broth): 8 µg/mL (≈ 19.5 µM); MIC (E. coli 1480076; Escherichia coli, 1480076, read-out: Median or modal MIC): 128 µg/mL (≈ 312 µM); MIC (E. coli 1480076; Escherichia coli, 1480076, Human urine, pH 6, read-out: Median or modal MIC): 32 µg/mL (≈ 78 µM); MIC (E. coli 1480076; Escherichia coli, 1480076, Human urine, pH 7.2, read-out: Median or modal MIC): 32 µg/mL (≈ 78 µM); MIC ([11]; Human urine, pH 6): 1 µg/mL (≈ 2.44 µM); MIC ([11]; Human urine, pH 7.2): 0.5 µg/mL (≈ 1.22 µM); MIC ([11]; MHII broth): 0.5 µg/mL (≈ 1.22 µM); MIC (E. coli ATCC 25922; Human urine, pH 6): 0.25 µg/mL (≈ 0.609 µM); MIC (E. coli ATCC 25922; Human urine, pH 7.2): 0.12 µg/mL (≈ 0.292 µM); MIC (E. coli ATCC 25922; MHII broth): 0.25 µg/mL (≈ 0.609 µM); MIC (K. pneumoniae 1434760; Klebsiella pneumoniae, 1434760, pH 6, read-out: Median or modal MIC): > 128 µg/mL; MIC (K. pneumoniae 1434760; Klebsiella pneumoniae, 1434760, pH 7.2, read-out: Median or modal MIC): 128 µg/mL (≈ 312 µM); MIC (K. pneumoniae 1434760; Klebsiella pneumoniae, 1434760, read-out: Median or modal MIC): > 128 µg/mL; MIC (K. pneumoniae 1266420; Human urine, pH 6, read-out: Median or modal MIC): 64 µg/mL (≈ 156 µM); MIC (K. pneumoniae 1266420; Human urine, pH 7.2, read-out: Median or modal MIC): 16 µg/mL (≈ 39 µM); MIC (K. pneumoniae 1266420; MHII broth, read-out: Median or modal MIC): 32 µg/mL (≈ 78 µM); MIC90 [12]: > 32 µg/mL

From article PMC8284453 (Antimicrobial Agents and Chemotherapy, 2021)
